Measurements from US8906395B2, “Pharmaceutical composition in which solubility of partially soluble tricyclic derivative is improved” (Jeil Pharmaceutical Co., Ltd., priority 2010, dated 2014).
Values after ≈ are worked out from the molar mass of the structure shown.

Tests used:
[1] = Solubility of tricyclic derivative compound in water (HPLC); assay type: physicochemical; conditions: distilled water, room temperature, stirred 24 hours, 0.2 μm filtrate
Description: The solubility of the tricyclic derivative compound of Formula 1 in water was measured in the following manner.
1.42 mg of the tricyclic derivative compound was dissolved in acetonitrile to prepare […] of a solution which was then serially diluted to prepare 50 μl/ml, 20 μl/ml and 10 μl/ml of standard solutions. 3-ethoxythiocolchicine as an internal standard was added to each of the standard solutions which were then analyzed by HPLC to measure the area ratio of the tricyclic derivative compound.
Then, 1 g of the tricyclic derivative compound was added to 10 ml of distilled water to make a suspension which was then stirred at room temperature for 24 hours to sufficiently dissolve the compound. Then, the suspension was filtered through a 0.2 μm membrane to remove insoluble materials, and the remaining filtrate was analyzed by HPLC using 3-ethoxythiocolchicine as an internal standard to measure the area ratio of the tricyclic derivative compound, which was then compared with the area ratio of the standard curve shown in FIG. 1, thereby determining the concentration of the tricyclic derivative compound dissolved in water.

[2] = Solubility of tricyclic derivative compound in solubilizing agents (HPLC); assay type: physicochemical
Description: The solubility of the tricyclic derivative compound in a solubilizing agent was measured in the following manner.

cancer cell lines = conditions: cited from earlier work
[3] = compared to a colchicine or taxol injection; cited from earlier work
tumor = conditions: in vivo; cited from earlier work
HUVEC cells = conditions: cited from earlier work

In the case of CCOc1cc2c(c(OC)c1OC)-c1ccc(SC)c(=O)cc1[C@@H](NC(=O)c1cccc(CO[N+](=O)[O-])c1F)CC2 [tricyclic derivative compound], the solubility in water [1] is reported as 0.00 μl/ml, the Solubility ([2]; PEG 400:water 0:100) is reported as “Not detected” and the solubility at 24 h ([2]; PEG 400:water 10:90, aqueous with cosolvent or surfactant or cyclodextrin) is reported as 0.21 µg/mL (≈ 0.359 µM). For the same compound, the solubility at 24 h ([2]; PEG 400:water 20:80, aqueous with cosolvent or surfactant or cyclodextrin) was 2.94 µg/mL (≈ 5.03 µM), the solubility at 24 h ([2]; PEG 400:water 30:70, aqueous with cosolvent or surfactant or cyclodextrin) was 1.24 µg/mL (≈ 2.12 µM) and the solubility at 24 h ([2]; PEG 400:water 40:60, aqueous with cosolvent or surfactant or cyclodextrin) was 53.9 µg/mL (≈ 92.3 µM). For the same compound, the solubility at 24 h ([2]; PEG 400:water 50:50, aqueous with cosolvent or surfactant or cyclodextrin) was 189 µg/mL (≈ 323 µM), the solubility at 24 h ([2]; PEG 400:water 100:0, organic solvent or mixture) was 52000 µg/mL (≈ 89000 µM) and the solubility at 24 h ([2]; benzyl alcohol, organic solvent or mixture, solvent: Benzylalcohol) was > 103000 µg/mL. The solubility at 24 h ([2]; organic solvent or mixture, solvent: Ethanol) was 35 µg/mL (≈ 59.9 µM), the solubility at 24 h ([2]; organic solvent or mixture, solvent: Glycerin) was 4.8 µg/mL (≈ 8.21 µM) and the solubility at 24 h ([2]; organic solvent or mixture, solvent: N,N-dimethylacetamide) was > 218000 µg/mL. For the same compound, the solubility at 24 h ([2]; organic solvent or mixture, solvent: Polyethylene glycol 400 (PEG 400)) was 52000 µg/mL (≈ 89000 µM), the solubility at 24 h ([2]; organic solvent or mixture, solvent: Propylene glycol) was 2300 µg/mL (≈ 3930 µM) and the Solubility ([2]; solvent: 5% aqueous solution of hydrochloric acid) was “Not detected”. The Solubility ([2]; solvent: 5% aqueous solution of sodium hydrogen carbonate) was “Not detected”, the Solubility ([2]; solvent: 5% aqueous solution of sodium oxide) was “Not detected” and the Solubility ([2]; solvent: Water) was “Not detected”. For the same compound, the “cytotoxicity against cancer cell lines” value (cancer cell lines) was “very strong cytotoxicity”, the “toxicity in animal toxicity test” value [3] was “significantly reduced toxicity” and the “tumor size and weight” value (tumor) was “significantly reduces the tumor size and weight”. The angiogenesis inhibitory activity (HUVEC cells) was “strong angiogenesis inhibitory activity”.
